The supplement of paper PMC13380429
± gives the standard deviation of the averaged measurements.

Experiments:
Conditions in all cases: 72 h
Calu-3 [1] = experiment: relative viability EC50 (midpoint between 100% and the lowest measured viability); higher = less toxic
Vero E6 [2] = experiment: as above
HepG2 [3] = experiment: as above
U2OS [4] = experiment: as above
Caco-2 [5] = experiment: as above
Calu-3 [6] = experiment: drug sensitivity score (DSS) for viability; higher = more toxic; extreme values may be limits of the assay
Vero E6 [7] = experiment: as above
HepG2 [8] = experiment: as above
U2OS [9] = experiment: as above
Caco-2 [10] = experiment: as above
Calu-3 [11] = experiment: cell viability relative to DMSO; higher = less toxic
Vero E6 [12] = experiment: as above
HepG2 [13] = experiment: as above
U2OS [14] = experiment: as above
Caco-2 [15] = experiment: as above

Structure (SMILES) | relative viability EC50 (Calu-3 [1]) [µM] | relative viability EC50 (Vero E6 [2]) [µM] | relative viability EC50 (HepG2 [3]) [µM] | relative viability EC50 (U2OS [4]) [µM] | relative viability EC50 (Caco-2 [5]) [µM] | drug sensitivity score (Calu-3 [6]) | drug sensitivity score (Vero E6 [7]) | drug sensitivity score (HepG2 [8]) | drug sensitivity score (U2OS [9]) | drug sensitivity score (Caco-2 [10]) | cell viability (Calu-3 [11]; 1 nM) [%] | cell viability (Calu-3 [11]; 10 nM) [%] | cell viability (Calu-3 [11]; 100 nM) [%] | cell viability (Calu-3 [11]; 1000 nM) [%] | cell viability (Calu-3 [11]; 10000 nM) [%] | cell viability (Vero E6 [12]; 1 nM) [%] | cell viability (Vero E6 [12]; 10 nM) [%] | cell viability (Vero E6 [12]; 100 nM) [%] | cell viability (Vero E6 [12]; 1000 nM) [%] | cell viability (Vero E6 [12]; 10000 nM) [%] | cell viability (HepG2 [13]; 1 nM) [%] | cell viability (HepG2 [13]; 10 nM) [%] | cell viability (HepG2 [13]; 100 nM) [%] | cell viability (HepG2 [13]; 1000 nM) [%] | cell viability (HepG2 [13]; 10000 nM) [%] | cell viability (U2OS [14]; 1 nM) [%] | cell viability (U2OS [14]; 10 nM) [%] | cell viability (U2OS [14]; 100 nM) [%] | cell viability (U2OS [14]; 1000 nM) [%] | cell viability (U2OS [14]; 10000 nM) [%] | cell viability (Caco-2 [15]; 1 nM) [%] | cell viability (Caco-2 [15]; 10 nM) [%] | cell viability (Caco-2 [15]; 100 nM) [%] | cell viability (Caco-2 [15]; 1000 nM) [%] | cell viability (Caco-2 [15]; 10000 nM) [%]
O=c1ncccn1[C@@H]1O[C@H](CO)[C@@H](O)[C@H]1O [zebularine] | > 10 | > 10 | > 10 | > 10 | > 10 | 0.3 | 0 | 0 | 0 | 0 | 94.4 | 102 | 85.9 | 96.7 | 84.4 | 99.6 | 99.1 | 102 | 97.9 | 99.1 | 113 | 97.5 | 111 | 101 | 103 | 97.8 | 99.2 | 96.8 | 101 | 92.6 | 103 | 102 | 104 | 97.9 | 101
CCc1cccc2c3c([nH]c12)C(CC)(CC(=O)O)OCC3 (stereo not given) [etodolac] | > 10 | > 10 | > 10 | > 10 | > 10 | 0 | 0 | 0 | 0 | 0 | 98 | 107 | 98.7 | 91.9 | 106 | 91.7 | 98.8 | 93.7 | 105 | 95.2 | 105 | 107 | 96.3 | 94.4 | 99.1 | 95.7 | 103 | 96.2 | 104 | 93.4 | 86.2 | 99.4 | 82.7 | 86.9 | 87.9
CC(C)[N+](C)(CCC(C(N)=O)(c1ccccc1)c1ccccc1)C(C)C [isopropamide-iodide] | > 10 | > 10 | > 10 | > 10 | > 10 | 0 | 0 | 0 | 0 | 0 | 97.2 | 90.1 | 96.2 | 94.1 | 87.1 | 102 | 104 | 101 | 99.4 | 98.6 | 98.1 | 108 | 93.5 | 100 | 102 | 104 | 99.8 | 103 | 98.4 | 100 | 102 | 94.2 | 98.1 | 93.9 | 101
Cc1nccn1CCC(C(N)=O)(c1ccccc1)c1ccccc1 [imidafenacin] | > 10 | > 10 | > 10 | > 10 | > 10 | 0 | 0 | 0 | 0 | 0.1 | 106 | 107 | 106 | 97.9 | 102 | 97.9 | 100 | 95.5 | 99.2 | 97.2 | 101 | 97.3 | 97.5 | 95 | 92.5 | 99 | 94 | 101 | 96.4 | 96.5 | 99.4 | 91.8 | 92.8 | 87.3 | 93.4
O=C(Nc1cccnn1)N1CCC(=Cc2cccc(Oc3ccc(C(F)(F)F)cn3)c2)CC1 | > 10 | > 10 | 2.33 | > 10 | > 10 | 0.2 | 0 | 4.7 | 0 | 0.9 | 104 | 95.3 | 92 | 95.3 | 84.9 | 96.1 | 93.3 | 93.2 | 87.3 | 96.1 | 99.9 | 97.5 | 106 | 93.3 | 34.1 | 94.3 | 96.2 | 96.3 | 97.9 | 91.2 | 100 | 104 | 102 | 96.4 | 81.4
CN1C[C@H](CNC(=O)OCc2ccccc2)C[C@@H]2c3cccc4c3c(cn4C)C[C@H]21 [metergoline] | > 10 | > 10 | > 10 | > 10 | > 10 | 0 | 0.4 | 0.6 | 0 | 0 | 101 | 92.2 | 101 | 89.8 | 104 | 105 | 105 | 95.2 | 94 | 84.2 | 101 | 98.5 | 100 | 96.9 | 84.6 | 95.4 | 99.1 | 104 | 96.4 | 95.8 | 116 | 91.3 | 101 | 88.1 | 99.6
CCN(CC)CCOC(=O)c1ccc(N)cc1 [procaine] | > 10 | > 10 | > 10 | > 10 | > 10 | 0 | 0 | 0 | 0 | 0 | 100 | 93.3 | 92 | 97 | 98.3 | 104 | 99.4 | 99.3 | 103 | 98.5 | 108 | 94.9 | 100 | 97.7 | 98.9 | 100 | 95.2 | 97.9 | 94.2 | 102 | 92.8 | 92.7 | 96.6 | 97 | 97.3
C[C@@H](O)[C@H](N)C(=O)N1CCC[C@H]1C(=O)N1CCC[C@H]1C(=O)N[C@H](C(N)=O)[C@@H](C)O [rapastinel] | > 10 | > 10 | > 10 | > 10 | > 10 | 0 | 0 | 0 | 0 | 0 | 95.3 | 101 | 91.4 | 96.8 | 106 | 97.6 | 99.5 | 95 | 102 | 114 | 100 | 110 | 91.9 | 104 | 97.6 | 95.7 | 94.4 | 98.8 | 95.6 | 97.3 | 100 | 88 | 97.6 | 97.1 | 92.6
CC1CCN(CC[C@H]2CCCN2S(=O)(=O)c2cccc(O)c2)CC1 | > 10 | > 10 | > 10 | > 10 | > 10 | 0 | 0 | 0 | 0 | 0 | 90.1 | 94.8 | 92.3 | 100 | 105 | 100 | 93.5 | 96.8 | 93.8 | 105 | 91.9 | 98.1 | 103 | 96.7 | 101 | 94.3 | 101 | 93.4 | 104 | 101 | 90.4 | 86.5 | 96.1 | 91.5 | 102
CC(C)(Sc1ccncc1-c1ccc(C#N)c2ccccc12)C(=O)O [verinurad] | > 10 | > 10 | > 10 | > 10 | > 10 | 0 | 0 | 0 | 0 | 0 | 106 | 93.7 | 90.9 | 113 | 96.8 | 95.3 | 101 | 91.9 | 99.4 | 106 | 103 | 99.8 | 93.3 | 105 | 122 | 103 | 99.5 | 96.8 | 99.8 | 103 | 97.6 | 93.2 | 101 | 95 | 101
O=C(c1ccccc1)c1ccc2n1CCC2C(=O)O (stereo not given) [ketorolac] | > 10 | > 10 | > 10 | > 10 | > 10 | 0 | 0 | 0.2 | 0 | 0 | 95.7 | 109 | 110 | 99.5 | 104 | 102 | 104 | 108 | 105 | 96.1 | 102 | 107 | 113 | 97.7 | 87.2 | 99.5 | 105 | 104 | 96.6 | 92.9 | 103 | 123 | 110 | 98.3 | 91.8
CC(=O)c1ccc2c(c1)N(CCCN(C)C)c1ccccc1S2 [acepromazine] | > 10 | > 10 | > 10 | > 10 | > 10 | 0.3 | 0 | 0 | 0 | 0 | 111 | 102 | 92.9 | 96.1 | 83.5 | 101 | 101 | 99.4 | 99.4 | 89.2 | 98.3 | 96.4 | 101 | 91.9 | 94.7 | 101 | 95 | 100 | 93.9 | 95.7 | 104 | 93.1 | 99.6 | 86.4 | 102
CCC(C)CCCC(=O)N[C@@H](CCN)C(=O)N[C@H](C(=O)N[C@@H](CCN)C(=O)N[C@H]1CCNC(=O)[C@H]([C@@H](C)O)NC(=O)[C@H](CCN)NC(=O)[C@H](CCN)NC(=O)[C@H](CC(C)C)NC(=O)[C@@H](CC(C)C)NC(=O)[C@H](CCN)NC1=O)[C@@H](C)O (stereo not given in full) [colistin] | > 10 | > 10 | > 10 | > 10 | > 10 | 0.95 ± 1.3 | 0 | 0 | 0 | 0 | 100 ± 4 | 93.4 ± 4.2 | 94.3 ± 4.8 | 98 ± 15 | 85.4 ± 7.2 | 101 ± 2.5 | 101 ± 2.5 | 104 ± 2.5 | 98.5 ± 1.2 | 103 ± 1.6 | 94 ± 1.7 | 105 ± 2 | 99.3 ± 11 | 103 ± 2 | 97.5 ± 8.1 | 99.7 ± 1.4 | 100 ± 2 | 97.8 ± 0.14 | 102.75 ± 0.071 | 99.2 ± 1.1 | 94.7 ± 6.2 | 98.4 ± 1.8 | 101 ± 7.6 | 104 ± 1.4 | 101 ± 10
CN[C@@H](C)C(=O)N[C@H](C(=O)N1CCC[C@H]1c1nc(C(=O)c2ccc(F)cc2)cs1)C1CCCCC1 [LCL-161] | > 10 | > 10 | > 10 | > 10 | > 10 | 2 | 0 | 1.8 | 0 | 0 | 106 | 102 | 97.6 | 86.4 | 77.2 | 97.8 | 102 | 97.8 | 107 | 104 | 93.5 | 104 | 99.8 | 83.4 | 89.8 | 104 | 109 | 99.7 | 97.8 | 94 | 99.9 | 97.9 | 91.9 | 103 | 95.2
